The source of these data is publication PMC5168863, “Synthesis and functionalization of protease-activated nanoparticles with tissue plasminogen activator peptides as targeting moiety and diagnostic tool for pancreatic cancer” (Journal of Nanobiotechnology, 2016).

Broadly, the Kd is the equilibrium constant for the complex coming apart. A higher Kd goes with weaker binding.

Test [1] deals with Gal-3 (Homo sapiens, UniProt P17931). The experiment in a line: Microscale thermophoresis (MST) binding of t-PA peptides to galectin-3. The following applies: for Kd: MST, human galectin; for Fold diff.: versus rh t-PA protein. The protocol:
(§1) To investigate the binding efficiency of the short t-PA-ligands [10 to 29-AA-long peptides fluorescein or rhodamine-labelled] to galectin-1, we applied the microscale thermophoresis (MST) technology which allows quantitative analysis of protein interactions in solutions. By using MST, individual affinity constants between the different t-PA peptides and galectins (Gal-1, -3, -4) previously characterized to be over-expressed in PDAC were determined and compared to the recombinant human t-PA protein (rh t-PA) as presented in Table 2.
(§2) In order to investigate the binding properties of the modified t-PA-peptides [10-29 AA-long fluorescence-labeled peptides] as ligands to galectins, the microscale thermophoresis (MST) (Monolith NT.115 MST instrument, NanoTemper Technologies GmbH, Munich Germany) technology was employed. MST allows a quantitative analysis of protein interactions in solution and is based on the directed motion of molecules in temperature gradients generated locally by an infrared laser, whereas the molecular mobility in the temperature gradient is analyzed via fluorescence. MST is highly sensitive to all types of binding-induced changes of molecular properties like protein size, charge, hydration shell or conformation. The binding modes such as dimerization, cooperativity, and competition are quantifiable and adaptable to diverse requirements of different biomolecules. Therefore, MST turned out as an ideal method for the interaction studies of t-PA and t-PA-derived peptides with galectins.
On the technique in general: In MST a laser heats a spot of the sample, and binding alters the fluorescence response.

The target in test [2] is Gal-1 (Homo sapiens, UniProt P09382). The experiment in a line: Microscale thermophoresis (MST) binding of t-PA peptides to galectin-1. The following applies: for Kd: MST, human galectin; for Fold diff.: versus rh t-PA protein. As to the method:
as §1, §2

Test [3] addresses T1, Gal-4 (Homo sapiens, UniProt P56470).
T1 sequence (P56470 1-323): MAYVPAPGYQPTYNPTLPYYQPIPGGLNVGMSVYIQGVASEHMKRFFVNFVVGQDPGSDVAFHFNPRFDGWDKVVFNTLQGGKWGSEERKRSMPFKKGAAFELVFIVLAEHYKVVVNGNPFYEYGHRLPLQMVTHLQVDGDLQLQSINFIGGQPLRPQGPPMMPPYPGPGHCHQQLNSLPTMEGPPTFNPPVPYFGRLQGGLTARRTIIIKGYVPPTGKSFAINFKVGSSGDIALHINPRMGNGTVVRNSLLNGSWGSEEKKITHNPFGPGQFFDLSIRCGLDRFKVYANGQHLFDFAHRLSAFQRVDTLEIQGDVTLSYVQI
The test is described as follows: Microscale thermophoresis (MST) binding of t-PA peptides to galectin-4. The following applies: for Kd: MST, human galectin; for Fold diff.: versus rh t-PA protein. As to the method: as §1, §2

The subject of test [4] is Panc-1. The test is described as follows: Flow cytometry, binding of peptide/NPs to Panc-1 cells. In kind it is cell-based, human. As to the method: (§3) With the first flow cytometry experiments we analyzed the nanoparticle-core (Core CAN-maghemite (Ce-Fe2O3) and the t-PA-peptide1-lactose (t-PApep1lac) linked to the core. This was to determine whether the fluorescein-labelled t-PA-peptides, covalently linked to NPs, bind to Panc-1 and Su86.86 cells and if the cells are able to internalize the NPs. In a parallel set of experiments the binding of the t-PA-peptide alone (without linkage to NPs) to the pancreatic cancer cells was assessed. For the experimental set-up a concentration of t-PA peptide of 1.25 µM was applied and the cells were exposed to the NPs with and without peptides for different incubation periods of 2, 6, 12 and 24 h.
(§4) Flow cytometry (fluorescent-activated cell sorting/FACS) analysis was used to determine the binding of fluorescein-labeled t-PA-pep1Lac and t-PApep1-vectorized nanoparticles (CAN-Mag@PNPs-tPApep1Lac and CAN-Mag@PNPs-PEG-REGAcp-PEG/tPA-pep1Lac) on the surfaces of Panc-1 and SU.86.86 cells. Additional FACS analyses were performed to monitor concentration and time-dependent binding efficiency and changes caused by addition of competitors (galactose, lactose) or in the presence of active MMP-9, which cleaves the REGAcp sequence. Deshielding of CAN-Mag@PNPs-PEG-REGAcp-PEG/tPA-pep1Lac was carried out by pre-activated MMP-9 (20 µM proMMP-9 and 200 nM of catalytic domain cdMMP-3 in 100 mM Tris, 100 mM NaCl, 10 mM CaCl2, pH 7.4 for 2 h at 37 °C). The active MMP-9 (50 µl, 10 µM) was incubated in the presence of 450 µl NPs and subsequently added to cells. Nanoparticle-exposed cell monolayers (of 2 × 10^5 cells/2 ml medium in 6 well plates), with or without treatment, were harvested 2, 12, 24 h post-exposure using 1 mM EDTA–phosphate-buffered saline (PBS) detachment buffer, (Miltenyi GmbH, Bergisch Gladbach, Germany), washed 3 times in PBS, incubated for 45 min on ice and subsequently subjected to analysis in a BD™ LSR II flow cytometer and Software Program: BD FACSDiva 7.0 (Becton–Dickinson,)
In general terms: Flow cytometry measures light scatter and fluorescence of single cells or particles in a stream.

The test system of test [5] is Su.86.86. The experiment in a line: Flow cytometry, binding of peptide/NPs to Su.86.86 cells. In kind it is cell-based, human. The protocol: as §3, §4

Residues, ends and D or L forms follow the SMILES beside them. *: point of attachment. 5FAM = O=C1OC2(c3ccc(O)cc3Oc3cc(O)ccc32)c2ccc(C(=O)*)cc21

Sequence of Gal-1 (P09382 whole entry): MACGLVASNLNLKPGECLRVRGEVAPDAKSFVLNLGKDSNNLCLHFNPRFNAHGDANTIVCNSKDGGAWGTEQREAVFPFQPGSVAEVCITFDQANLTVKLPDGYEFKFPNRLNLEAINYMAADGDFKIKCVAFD
Sequence of Gal-3 (P17931 whole entry): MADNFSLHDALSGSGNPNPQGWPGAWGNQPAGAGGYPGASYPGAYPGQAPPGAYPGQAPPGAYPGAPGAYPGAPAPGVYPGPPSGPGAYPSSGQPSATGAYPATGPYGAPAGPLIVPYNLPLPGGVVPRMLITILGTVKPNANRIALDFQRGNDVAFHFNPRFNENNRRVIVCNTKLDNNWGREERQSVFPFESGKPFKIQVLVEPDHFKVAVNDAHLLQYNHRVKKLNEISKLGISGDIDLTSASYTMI

Consider `CC(C)C[C@H](NC(=O)[C@H](C)NC(=O)[C@H](CO)NC(=O)[C@H](CO)NC(=O)[C@H](CC(N)=O)NC(=O)[C@H](Cc1c[nH]c2ccccc12)NC(=O)[C@H](CC(N)=O)NC(=O)[C@@H](NC(=O)[C@H](CS)NC(=O)[C@H](CCC(=O)O)NC(=O)[C@H](C)NC(=O)CNC(=O)[C@H](CO)NC(=O)[C@H](CCC(=O)O)NC(=O)[C@H](C)NC(=O)[C@@H](NC(=O)[C@H](CO)NC(=O)[C@H](Cc1c[nH]c2ccccc12)NC(=O)[C@@H](NC(=O)CNC(=O)c1ccc2c(c1)C(=O)OC21c2ccc(O)cc2Oc2cc(O)ccc21)[C@@H](C)O)[C@@H](C)O)[C@@H](C)O)C(=O)N[C@@H](C)C(=O)N[C@@H](CCC(N)=O)C(=O)N[C@@H](CCCCN)C(=O)N1CCC[C@H]1C(=O)N[C@@H](Cc1ccc(O)cc1)C(=O)N[C@@H](CO)C(=O)NCC(=O)N[C@@H](CCCNC(=N)N)C(=O)O` [t-PA-pep-1] (5FAM-GTWSTAESGAECTNWNSSALAQKPYSGR-OH), for which the values for the dissociation constant Kd in test [1] (N-Fluo. labelled ligand), in test [2] (N-Fluo. labelled ligand) and in test [3] (N-Fluo. labelled ligand) were 272 µM, 141 µM and 34 µM, respectively. Moreover, the Fold diff. is reported as −35.4 in test [1] (N-Fluo. labelled ligand), −28.7 in test [2] (N-Fluo. labelled ligand) and 1.5 in test [3] (N-Fluo. labelled ligand).
Consider `CC(C)C[C@H](NC(=O)[C@H](C)NC(=O)[C@H](CO)NC(=O)[C@H](CO)NC(=O)[C@H](CO[C@@H]1O[C@H](CO)[C@@H](O[C@@H]2O[C@H](CO)[C@H](O)[C@H](O)[C@H]2O)[C@H](O)[C@H]1O)NC(=O)[C@H](Cc1c[nH]c2ccccc12)NC(=O)[C@H](CC(N)=O)NC(=O)[C@@H](NC(=O)[C@H](CS)NC(=O)[C@H](CCC(=O)O)NC(=O)[C@H](C)NC(=O)CNC(=O)[C@H](CO)NC(=O)[C@H](CCC(=O)O)NC(=O)[C@H](C)NC(=O)[C@@H](NC(=O)[C@H](CO)NC(=O)[C@H](Cc1c[nH]c2ccccc12)NC(=O)[C@@H](NC(=O)CN)[C@@H](C)O)[C@@H](C)O)[C@@H](C)O)C(=O)N[C@@H](C)C(=O)N[C@@H](CCC(N)=O)C(=O)N[C@@H](CCCCN)C(=O)N1CCC[C@H]1C(=O)N[C@@H](Cc1ccc(O)cc1)C(=O)N[C@@H](CO)C(=O)NCC(=O)N[C@@H](CCCNC(=N)N)C(=O)N[C@@H](CCCCNC(=O)c1ccc2c(c1)C(=O)OC21c2ccc(O)cc2Oc2cc(O)ccc21)C(=O)O` [t-PA-pep-1lac], for which the “Percentage of cells labeled with nanoparticles” value in test [4] (Panc-1, 2 h incubation) is listed as 2.6%; in test [4] (Panc-1, 12 h incubation), 87.6%; in test [4] (Panc-1, 24 h incubation), 86.3%; in test [5] (Su.86.86, 2 h incubation), 25.7%; in test [5] (Su.86.86, 12 h incubation) it was 45.8%; in test [5] (Su.86.86, 24 h incubation), 36.6%. For the same molecule, the Kd in test [1] (C-Fluo. labelled ligand) is 0.73 µM; in test [2] (C-Fluo. labelled ligand), 0.2 µM; in test [2] (N-Fluo. labelled ligand), 0.286 µM; in test [3] (C-Fluo. labelled ligand), 12.7 µM. For the same molecule, the Fold diff. in test [1] (C-Fluo. labelled ligand) stood at 10.4; in test [2] (C-Fluo. labelled ligand) it was 25; in test [2] (N-Fluo. labelled ligand), 17; in test [3] (C-Fluo. labelled ligand), 4.03.
Regarding “rh t-PA protein: recombinant human t-PA protein [reference compound]”, the results for the Kd in test [1] (N-Fluo. labelled ligand), in test [2] (N-Fluo. labelled ligand) and in test [3] (N-Fluo. labelled ligand) were 7.68 µM, 4.92 µM and 51.2 µM, respectively. For the same molecule, the Fold diff. in test [1] (N-Fluo. labelled ligand), in test [2] (N-Fluo. labelled ligand) and in test [3] (N-Fluo. labelled ligand) was 1 each time.
